Experimental data taken from patent publication EP0435693B1, “Pharmaceutical compositions containing 3-oxygermylpropionic acid polymers for inhibiting the degeneration of cells” (SANWA KAGAKU KENKYUSHO CO., LTD., priority 1989, dated 1991).
Where two headings read alike, the source gives them in different places.

System: SD masculine rats with hypohepatia
Format: in vivo
Settings: hepatoxic drug alone after carbon tetrachloride
Description: Carbon tetrachloride was administered orally as a hepatoxic substance to SD masculine rats (weighing 500 g ± 50 g; age, 10 months) with hypohepatia (3 groups containing 8-9 rats each) at a dose of 0.5 g/kg, whereby their serum GOT was increased to more than 50 Karmen units after 24 hours. At the same time, 2 mg/kg of indomethacin as a hepatoxic drug (a lenitive), 5 mg/kg of 5-FU as a hepatoxic carcinostatic and 10 mg/kg of tetracycline as a hepatoxic antibiotic were administered orally to each of the animals five times every fourth day.
An additional 20 mg/kg of the composition of Preparation Ex. 1 was administered orally to the medicated group.
Seven days after the completion of medication, the animals were slaughtered to remove the livers, which were then visually observed. Afterwards, the tissue slices were observed under an optical microscope to examine the degree of heteroplasia of the liver cells.
The GOT eluates due to cytoclasis were determined by gathering blood from the tail vein of each animal 24 hours after the administration of carbon tetrachloride, two and ten days after the initiation of medication and on the final date of experimentation.

SMILES | mortality | serum GOT (2 days after the initiation of medication) [Karmen units/ml] | serum GOT (10 days) [Karmen units/ml] | serum GOT (Final Date) [Karmen units/ml]
COc1ccc2c(c1)c(CC(=O)O)c(C)n2C(=O)c1ccc(Cl)cc1 [Indomethacin] | some animals died | 81.3±4.21 | 91.8±8.35 | 99.4±1.43
O=c1[nH]cc(F)c(=O)[nH]1 [5-FU, 5-fluorouracil] | some animals died | – | – | –
